In patent US4112086A, “7β-Acylamino-3-(phosphonoalkyl and esterified phosphonoalkyl substituted tetrazolylthiomethyl)cephalosporins” (SmithKline Corporation, priority 1976, dated 1978):
≈ marks a conversion by molar mass, not a printed value. Where a name gives a salt, the structure may show the parent alone. Read-outs that look alike come from different tables or passages of the source.

Legend:
[1] = tested on: Proteus morgani 179; test: in vitro testing, minimum inhibitory concentration (MIC); type: cell-based; details: cefazolin values in parenthesis
Experimental: (§1) The compounds of Formula I have anti-bacterial activity against both Gram-positive and Gram-negative organisms. Minimum inhibitory concentrations (MIC's) range from 0.1 to >200 μg/ml in in vitro testing. Test results for the compounds 7β-D-mandelamido-3-(1-diethoxyphosphinylmethyltetrazol-5-ylthiomethyl)-3-cephem-4-carboxylic acid sodium salt hydrate (Compound A), 7β-D-mandelamido-3-(1-ethoxyhydroxyphosphinylmethyltetrazol-5-ylthiomethyl)-3-cephem-4-carboxylic acid disodium salt hydrate (Compound B) and 7β-D-mandelamido-3-(1-phosphonomethyltetrazol-5-ylthiomethyl)-3-cephem-4-carboxylic acid (Compound C) are given below. Results shown in parenthesis are those obtained for cefazolin.

[2] = tested on: Salmonella ATCC 12176; test: as above; type: cell-based
Experimental: as §1

[3] = tested on: Serratia marc. ATCC 13880; test: as above; type: cell-based
Experimental: as §1

[4] = tested on: Entero. cloacae HH 31254; test: as above; type: cell-based; details: Enterobacter cloacae, HH31254
Experimental: as §1

[5] = tested on: E. coli HH 33779; test: as above; type: cell-based
Experimental: as §1

[6] = tested on: E. coli SK 12140; test: as above; type: cell-based
Experimental: as §1

[7] = tested on: S. villaluz SK 70390; test: as above; type: cell-based; details: cefazolin values in parenthesis
Experimental: as §1

[8] = tested on: Kleb. pneumo. SK 1200; test: as above; type: cell-based
Experimental: as §1

[9] = tested on: Kleb. pneumo. SK 4200; test: as above; type: cell-based; details: cefazolin values in parenthesis
Experimental: as §1

[10] = tested on: Pseudo. aerug. HH 63; test: as above; type: cell-based
Experimental: as §1

[11] = tested on: S. aureus SK 23390; test: as above; type: cell-based
Experimental: as §1

[12] = tested on: Strep. faecalis HH 34358; test: as above; type: cell-based
Experimental: as §1

[13] = tested on: Proteus mirabilis 444; test: as above; type: cell-based
Experimental: as §1

[14] = tested on: Entero. aerog. ATCC 13048; test: as above; type: cell-based
Experimental: as §1

[15] = tested on: S. aureus SK 127; test: as above; type: cell-based; details: Staphylococcus aureus, SK127, cefazolin values in parenthesis
Experimental: as §1

[16] = tested on: Kleb. pneumo. 4200; test: in vivo mouse protection test; details: sc
Experimental: (§2) 4200 upon subcutaneous injection; cefazolin gave results of 4.4 mg/kg against E. coli 12140 and 7.2 mg/kg against Kleb. pneumo. 4200 upon subcutaneous administration.

[17] = tested on: E. coli 12140; test: in vivo mouse protection test
Experimental: as §2

[18] = Entero. cloacae HH 31254, in vitro, cefazolin values in parenthesis, read-out: MIC
[19] = Escherichia coli, HH33779, E. coli HH 33779, cefazolin values in parenthesis, read-out: MIC
[20] = Escherichia coli, SK12140, E. coli SK 12140, in vitro, cefazolin values in parenthesis, read-out: MIC
[21] = Kleb. pneumo. SK 1200, in vitro, cefazolin values in parenthesis, read-out: MIC
[22] = Pseudo. aerug. HH 63, in vitro, cefazolin values in parenthesis, read-out: MIC
[23] = Staphylococcus aureus, SK23390, S. aureus SK 23390, in vitro, cefazolin values in parenthesis, read-out: MIC
[24] = Enterococcus faecalis, HH34358, cefazolin values in parenthesis, read-out: MIC
[25] = Proteus mirabilis 444, cefazolin values in parenthesis, read-out: MIC
[26] = Entero. aerog. ATCC 13048, in vitro, cefazolin values in parenthesis, read-out: MIC
[27] = Salmonella, ATCC12176, Salmonella ATCC 12176, cefazolin values in parenthesis, read-out: MIC
[28] = Serratia, ATCC13880, Serratia marc. ATCC 13880, cefazolin values in parenthesis, read-out: MIC

SMILES	MIC [1]	MIC ([7]; read-out: MIC)	MIC [4, 18]	MIC [5, 19]	MIC [6, 20]	MIC [8, 21]	MIC [15]	MIC ([9]; read-out: MIC)	MIC [10, 22]	MIC [11, 23]	MIC [12, 24]	MIC [13, 25]	MIC [14, 26]	MIC ([1]; read-out: MIC)	MIC [2, 27]	MIC [3, 28]	other results
CCOP(=O)(Cn1nnnc1SCC1=C(C(=O)[O-])N2C(=O)[C@@H](NC(=O)[C@H](O)c3ccccc3)[C@H]2SC1)OCC.O.[Na+] [Compound A, 7β-D-mandelamido-3-(1-diethoxyphosphinylmethyltetrazol-5-ylthiomethyl)-3-cephem-4-carboxylic acid sodium salt hydrate]	3.1 µg/mL	50 µg/mL	–	–	–	–	–	–	–	–	–	–	–	–	–	–	MIC ([1]; sodium salt hydrate): 1.6 µg/mL; MIC ([2]; Salmonella ATCC 12176, cefazolin values in parenthesis, sodium salt hydrate): 1.6 µg/mL; MIC ([2]; Salmonella, ATCC12176, Salmonella ATCC 12176, cefazolin values in parenthesis): 3.1 µg/mL; MIC ([3]; Serratia marc. ATCC 13880, cefazolin values in parenthesis, sodium salt hydrate): 12.5 µg/mL; MIC ([3]; Serratia, ATCC13880, Serratia marc. ATCC 13880, cefazolin values in parenthesis): 25 µg/mL; MIC [4]: 3.1 µg/mL; MIC ([5]; E. coli HH 33779, cefazolin values in parenthesis, sodium salt hydrate): 6.3 µg/mL; MIC ([5]; Escherichia coli, HH33779, E. coli HH 33779, cefazolin values in parenthesis): 12.5 µg/mL; MIC ([6]; Escherichia coli, SK12140): 6.3 µg/mL; MIC [8]: 3.1 µg/mL; MIC [9]: 3.1 µg/mL; MIC ([9]; sodium salt hydrate): 1.6 µg/mL; MIC [10]: > 200 µg/mL; MIC ([11]; Staphylococcus aureus, SK23390): 0.8 µg/mL; MIC ([12]; Enterococcus faecalis, HH34358, cefazolin values in parenthesis): 12.5 µg/mL; MIC ([12]; cefazolin values in parenthesis, sodium salt hydrate): 25 µg/mL; MIC ([13]; Proteus mirabilis 444, cefazolin values in parenthesis, sodium salt hydrate): 1.6 µg/mL; MIC ([13]; Proteus mirabilis, 444, Proteus mirabilis 444, cefazolin values in parenthesis): 3.1 µg/mL; MIC [14]: 12.5 µg/mL
CCOP(=O)(O)Cn1nnnc1SCC1=C(C(=O)O)N2C(=O)[C@@H](NC(=O)[C@H](O)c3ccccc3)[C@H]2SC1 [Compound B, 7β-D-mandelamido-3-(1-ethoxyhydroxyphosphinylmethyltetrazol-5-ylthiomethyl)-3-cephem-4-carboxylic acid disodium salt hydrate]	–	> 200 µg/mL	0.8 µg/mL	1.6 µg/mL	0.4 µg/mL	0.4 µg/mL	6.3 µg/mL	0.4 µg/mL	> 200 µg/mL	1.6 µg/mL	100 µg/mL	1.6 µg/mL	3.1 µg/mL	–	–	–	MIC ([6]; E. coli SK 12140, in vitro, cefazolin values in parenthesis, disodium salt hydrate): 0.8 µg/mL; MIC ([12]; cefazolin values in parenthesis, disodium salt hydrate): 50 µg/mL; ED50 ([16]; Mus musculus): 0.39 mg/kg; ED50 ([17]; Escherichia coli, 12140, sc): 1.02 mg/kg
O=C(O)C1=C(CSc2nnnn2CP(=O)(O)O)CS[C@@H]2[C@H](NC(=O)[C@H](O)c3ccccc3)C(=O)N12 [Compound C, 7β-D-mandelamido-3-(1-phosphonomethyltetrazol-5-ylthiomethyl)-3-cephem-4-carboxylic acid]	–	> 200 µg/mL	1.6 µg/mL (≈ 2.95 µM)	3.1 µg/mL (≈ 5.71 µM)	3.1 µg/mL (≈ 5.71 µM)	0.8 µg/mL (≈ 1.47 µM)	6.3 µg/mL (≈ 11.6 µM)	1.6 µg/mL (≈ 2.95 µM)	> 200 µg/mL	3.1 µg/mL (≈ 5.71 µM)	200 µg/mL (≈ 369 µM)	0.4 µg/mL (≈ 0.737 µM)	6.3 µg/mL (≈ 11.6 µM)	50 µg/mL (≈ 92.2 µM)	0.8 µg/mL (≈ 1.47 µM)	3.1 µg/mL (≈ 5.71 µM)	–
Cc1nnc(SCC2=C(C(=O)O)N3C(=O)[C@@H](NC(=O)Cn4cnnn4)[C@H]3SC2)s1 [cefazolin, reference compound]	100 µg/mL (≈ 220 µM)	–	0.8 µg/mL (≈ 1.76 µM)	1.6 µg/mL (≈ 3.52 µM)	0.8 µg/mL (≈ 1.76 µM)	0.8 µg/mL (≈ 1.76 µM)	0.4 µg/mL (≈ 0.88 µM)	1.6 µg/mL (≈ 3.52 µM)	> 200 µg/mL	0.4 µg/mL (≈ 0.88 µM)	6.3 µg/mL (≈ 13.9 µM)	3.1 µg/mL (≈ 6.82 µM)	–	200 µg/mL (≈ 440 µM)	0.8 µg/mL (≈ 1.76 µM)	> 200 µg/mL	MIC ([2]; Salmonella ATCC 12176, cefazolin values in parenthesis): 0.4 µg/mL (≈ 0.88 µM); MIC ([3]; ATCC13880, Serratia marc. ATCC 13880, cefazolin values in parenthesis, read-out: MIC): 50 µg/mL (≈ 110 µM); MIC ([5]; E. coli HH 33779, cefazolin values in parenthesis): 0.8 µg/mL (≈ 1.76 µM); MIC [7]: 100 µg/mL (≈ 220 µM); MIC ([8]; Kleb. pneumo. SK 1200, in vitro, cefazolin values in parenthesis): 0.4 µg/mL (≈ 0.88 µM); MIC ([11]; S. aureus SK 23390, in vitro, cefazolin values in parenthesis): 0.2 µg/mL (≈ 0.44 µM); ED50 ([16]; mouse protection, Kleb. pneumo. 4200, subcutaneous, read-out: ED50): 7.2 mg/kg; ED50 ([17]; Escherichia coli, sc, mouse protection, E. coli 12140, subcutaneous, read-out: ED50): 4.4 mg/kg
